Measured values published in BigSolDB 2.1.

CC(=O)C1=CC[C@H]2[C@@H]3CCC4=CC(=O)C=C[C@]4(C)[C@H]3[C@@H](O)C[C@]12C
solubility (mole fraction)
Details | in acetone | in ethanol
298.15 K | 0.00192 | 0.00213
303.15 K | 0.00215 | 0.00252
308.15 K | 0.00243 | 0.00291
313.15 K | 0.00275 | 0.00335
318.15 K | 0.00303 | 0.00395
323.15 K | 0.00351 | 0.00461
328.15 K | 0.0038 | 0.00541
333.15 K | – | 0.00625
338.15 K | – | 0.00722
343.15 K | – | 0.00844
348.15 K | – | 0.0097
